Drawing on US8569336B2, “Compounds for the treatment of inflammatory disorders” (priority 2008, dated 2013), this text covers Ki, AUC and IC50 for 30 molecules.

Data set [1] concerns the target T1, purified catalytic domain of recombinant human TACE (rhTACEc) (Homo sapiens, UniProt P78536, N452Q/S266A).
T1 construct: 6xHis (C); made in house; host or cells: baculovirus/Hi5 insect cells
Nature of the data set: TACE kinetic assay: cleavage of internally quenched peptide substrate TNF-FRET 2 (Ki). It counts as biochemical. Conditions: TNF-FRET 2 substrate.

Data set [2] can be described thus: Area under the curve determinations of plasma levels in rats (rrAUC), oral 10 mg/kg. In kind it is in vivo. Conditions: rat, plasma 0.5-6 h post-dosing, read-out: RR AUC (rapid rat AUC, rrAUC).
Data set [3] has as its system TNF-α production from human whole blood. Nature of the data set: Inhibition of TNF-α production from human whole blood (hWBA), LPS stimulated, ELISA. In kind it is cell-based. Particulars: Homo sapiens, 3.5 h, human whole blood diluted 1:1, LPS stimulated, 3.5 h, TNF-α by ELISA; read-out: hWBA (IC50). For orientation: In an ELISA, binding on a coated surface is turned into a signal by an enzyme label.

Where two headings read alike, the source gives them in different places.

T1 sequence (P78536 215-477 S266A/N452Q): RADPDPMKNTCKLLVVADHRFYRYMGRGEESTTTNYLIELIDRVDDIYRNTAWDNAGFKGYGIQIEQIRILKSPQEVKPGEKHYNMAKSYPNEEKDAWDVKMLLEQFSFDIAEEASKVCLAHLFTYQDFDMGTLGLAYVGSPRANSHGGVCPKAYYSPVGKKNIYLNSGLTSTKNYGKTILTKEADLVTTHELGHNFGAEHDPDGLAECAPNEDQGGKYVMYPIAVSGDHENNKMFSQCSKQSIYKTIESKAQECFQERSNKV

As usually defined, the Ki is a dissociation constant, usually derived from enzyme kinetics or from competition with a known ligand. As usually defined, the AUC is concentration integrated over time. By IC50 is commonly meant the midpoint of a concentration-inhibition curve. For the molecule `COc1ccc2c(c1F)C(=O)N(C[C@@]1(c3cc4nc(-c5ccncc5)ccc4o3)NC(=O)NC1=O)C2` [Compound 2122], in data set [1] (Ki), the Ki worked out at 0.58 nM. Moreover, in data set [2], the AUC came out at 8.18 µM·h. Further, in data set [3], the IC50 was 426 nM.
Consider `CCN1CCN(c2ccc3oc([C@]4(CN5Cc6ccc(OC)cc6C5=O)NC(=O)NC4=O)cc3n2)CC1` [Compound 2123], for which the Ki in data set [1] (read-out: Ki) came to 0.807 nM. Moreover, the AUC in data set [2] was determined as 0.727 µM·h. In addition, the IC50 in data set [3] was found to be 136 nM.
For `CC[C@@H]1CN(c2ccc3oc([C@]4(CN5Cc6ccc(OC)cc6C5=O)NC(=O)NC4=O)cc3n2)CCN1` [Compound 2124], in that order: 1.09 nM, 0.014 µM·h and 270 nM.
On the same counts, the results for `COc1ccc2c(c1F)C(=O)N(C[C@@]1(c3cc4nc(N5CCN(C)CC5)ccc4o3)NC(=O)NC1=O)C2` [Compound 2125] are 0.5 nM, 1.52 µM·h and 144 nM.
Regarding `COc1ccc2c(c1)C(=O)N(C[C@@]1(c3cc4nc(Nc5cnccn5)ccc4o3)NC(=O)NC1=O)C2` [Compound 2129], in data set [1] (read-out: Ki), the Ki was 0.395 nM. In data set [2], the exposure (AUC) is 1.33 µM·h. For the same molecule, the IC50 in data set [3] worked out at 750 nM.
For the molecule `COc1ccc2c(c1)C(=O)N(C[C@@]1(c3cc4nc(Nc5cccnc5)ccc4o3)NC(=O)NC1=O)C2` [Compound 2130], in data set [1] (Ki), the Ki was 0.629 nM. The AUC in data set [2] stood at 0.072 µM·h. The IC50 in data set [3] is 163 nM.
As to `COc1ccc2c(c1)C(=O)N(C[C@@]1(c3cc4nc(Nc5ccnn5C)ccc4o3)NC(=O)NC1=O)C2` [Compound 2131], the inhibitory constant (Ki) in data set [1] (read-out: Ki) turned out to be 0.418 nM. Moreover, the AUC in data set [2] is 0.257 µM·h. The IC50 in data set [3] was found to be 637 nM.
For the molecule `COc1ccc2c(c1)C(=O)N(C[C@@]1(c3cc4nc(Nc5onc(C)c5C)ccc4o3)NC(=O)NC1=O)C2` [Compound 2132], the Ki in data set [1] (Ki) is 0.593 nM. In addition, the AUC in data set [2] came to 0.145 µM·h. Further, in data set [3], the IC50 stood at 3130 nM.
As for `COc1ccc2c(c1)C(=O)N(C[C@@]1(c3cc4nc(NC(=O)c5ccncc5)ccc4o3)NC(=O)NC1=O)C2` [Compound 2135], the inhibitory constant (Ki) in data set [1] (read-out: Ki) is 1.2 nM. Besides, in data set [2], the AUC amounted to 0.56 µM·h. For the same molecule, the IC50 in data set [3] was found to be 2780 nM.
Turning to `COc1ccc2c(c1)C(=O)N(C[C@@]1(c3cc4nc(NC5CCN(C)CC5)ccc4o3)NC(=O)NC1=O)C2` [Compound 2141], the Ki in data set [1] (read-out: Ki) came out at 0.599 nM. Besides, the area under the curve (AUC) in data set [2] amounted to 2.71 µM·h. The IC50 in data set [3] was 381 nM.
For `COc1ccc2c(c1)C(=O)N(C[C@@]1(c3cc4nc(N5CCN(CCN(C)C)CC5)ccc4o3)NC(=O)NC1=O)C2` [Compound 2142], in that order: 0.875 nM, 0.06 µM·h and 463 nM.
For `COc1ccc2c(c1)C(=O)N(C[C@@]1(c3cc4nc(N(c5cccnc5)C5CCNCC5)ccc4o3)NC(=O)NC1=O)C2` [Compound 2145], the Ki in data set [1] (Ki) was determined as 0.547 nM. In data set [2], the AUC is 0.086 µM·h. In data set [3], the IC50 was 174 nM.
As for `COc1ccc2c(c1F)C(=O)N(C[C@@]1(c3cc4nc(N5CCCNC5=O)ccc4o3)NC(=O)NC1=O)C2` [Compound 2146], the inhibition constant (Ki) in data set [1] (read-out: Ki) came out at 0.974 nM. For the same molecule, the AUC in data set [2] is 0.522 µM·h. For the same molecule, the IC50 in data set [3] stood at 507 nM.
For the molecule `COc1ccc2c(c1)C(=O)N(C[C@@]1(c3cc4nc(-c5cncnc5)ccc4o3)NC(=O)NC1=O)C2` [Compound 2147], the Ki in data set [1] (read-out: Ki) worked out at 0.299 nM. Further, the AUC in data set [2] came out at 2.19 µM·h. Moreover, the IC50 in data set [3] is 1080 nM.
`COc1ccc2c(c1)C(=O)N(C[C@@]1(c3cc4nc(NC5CC5)ccc4o3)NC(=O)NC1=O)C2` [Compound 2148]: the Ki in data set [1] (read-out: Ki) amounted to 0.179 nM. The AUC in data set [2] came to 9.34 µM·h. Also, in data set [3], the IC50 came to 624 nM.
`COc1ccc2c(c1Cl)C(=O)N(C[C@@]1(c3cc4ncccc4o3)NC(=O)NC1=O)C2` [Compound 2153]: in data set [1] (read-out: Ki), the inhibition constant Ki amounted to 1.1 nM. Also, the AUC in data set [2] came to 1.76 µM·h. Further, the IC50 in data set [3] was 2650 nM.
As for `COc1ccc2c(c1)C(=O)N(C[C@@]1(c3cc4nc(N5C[C@@H](O)CC5=O)ccc4o3)NC(=O)NC1=O)C2` [Compound 2154], in data set [1] (read-out: Ki), the Ki is 0.645 nM. The AUC in data set [2] was determined as 0.393 µM·h. The IC50 in data set [3] worked out at 125 nM.
For `COc1ccc2c(c1)C(=O)N(C[C@@]1(c3cc4nc(N5C(=O)CC[C@H]5CO)ccc4o3)NC(=O)NC1=O)C2` [Compound 2156], in that order: 0.976 nM, 0.033 µM·h and 325 nM.
In the case of `COc1ccc2c(c1)C(=O)N(C[C@@]1(c3cc4nc(N5C[C@H](O)CC5=O)ccc4o3)NC(=O)NC1=O)C2` [Compound 2158], in data set [1] (read-out: Ki), the inhibition constant Ki is 0.545 nM. Moreover, in data set [2], the AUC came to 1.19 µM·h. In addition, in data set [3], the IC50 was 180 nM.
In the case of `COc1ccc2c(c1)C(=O)N(C[C@@]1(c3cc4nc(N5CC[C@H](O)C5=O)ccc4o3)NC(=O)NC1=O)C2` [Compound 2159], the Ki in data set [1] (read-out: Ki) came out at 0.935 nM. Also, the AUC in data set [2] turned out to be 0.527 µM·h. Further, the 50% inhibitory concentration (IC50) in data set [3] is 331 nM.
In the case of `COc1ccc2c(c1)C(=O)N(C[C@@]1(c3cc4nc(N5C(=O)CCC5C)ccc4o3)NC(=O)NC1=O)C2` (stereo partly drawn) [Compound 2161], in data set [1] (read-out: Ki), the inhibition constant Ki came out at 0.54 nM. In addition, the AUC in data set [2] was determined as 4.79 µM·h. In addition, the IC50 in data set [3] is 186 nM.
On to `COc1ccc2c(c1)C(=O)N(C[C@@]1(c3cc4nc(N5CCOCC5)ccc4o3)NC(=O)NC1=O)C2` [Compound 2163], for which the Ki in data set [1] (read-out: Ki) is 0.563 nM. Moreover, the AUC in data set [2] was 3.64 µM·h. The concentration for half-maximal inhibition (IC50) in data set [3] was 1120 nM.
On the same counts, the results for `COc1ccc2c(c1)C(=O)N(C[C@@]1(c3cc4nc(-n5ccnc5)ccc4o3)NC(=O)NC1=O)C2` [Compound 2164] are 0.557 nM, 0.534 µM·h and 168 nM.
`COc1ccc2c(c1)C(=O)N(C[C@@]1(c3cc4nc(-n5cccn5)ccc4o3)NC(=O)NC1=O)C2` [Compound 2165]: in data set [1] (Ki), the Ki is 0.405 nM. The AUC in data set [2] was determined as 21 µM·h. Further, the IC50 in data set [3] was 1370 nM.
Turning to `COc1ccc2c(c1)C(=O)N(C[C@@]1(c3cc4nc(N5CC[C@@H](O)C5)ccc4o3)NC(=O)NC1=O)C2` [Compound 2166], the inhibition constant Ki in data set [1] (read-out: Ki) was found to be 0.276 nM. Further, the AUC in data set [2] was determined as 0.6 µM·h. For the same molecule, the IC50 in data set [3] was determined as 141 nM.
For `COc1ccc2c(c1)C(=O)N(C[C@@]1(c3cc4nc(N5CCCCC5)ccc4o3)NC(=O)NC1=O)C2` [Compound 2168], in that order: 0.34 nM, 3.53 µM·h and 885 nM.
As to `COc1ccc2c(c1)C(=O)N(C[C@@]1(c3cc4nc(Nc5ncccn5)ccc4o3)NC(=O)NC1=O)C2` [Compound 2169], the Ki in data set [1] (read-out: Ki) came out at 0.576 nM. Further, the AUC in data set [2] was determined as 4.83 µM·h. In addition, the IC50 in data set [3] was determined as 920 nM.
For `COc1ccc2c(c1)C(=O)N(C[C@@]1(c3cc4nc(N5CCC[C@@H](O)C5)ccc4o3)NC(=O)NC1=O)C2` [Compound 2170], in data set [1] (Ki), the Ki stood at 0.415 nM. In addition, in data set [2], the AUC was 0.414 µM·h. Also, the IC50 in data set [3] amounted to 189 nM.
Consider `COc1ccc2c(c1)C(=O)N(C[C@@]1(c3cc4nc(N5CCCC5=O)ccc4o3)NC(=O)NC1=O)C2` [Compound 2171], for which the Ki in data set [1] (read-out: Ki) was found to be 0.67 nM. Besides, the AUC in data set [2] came out at 9.1 µM·h. For the same molecule, the IC50 in data set [3] amounted to 487 nM.
For `COc1ccc2c(c1)C(=O)N(C[C@@]1(c3cc4nc(N5CCC5=O)ccc4o3)NC(=O)NC1=O)C2` [Compound 2173], in that order: 0.955 nM, 2.54 µM·h and 243 nM.
